Results taken from patent US7030060B1, “Rest-breaking composition and use thereof” (Akzo Nobel N.V., priority 1999, dated 2006).

Tested on: Golden Delicious apples
Test: Usability of the organic nitrogen compound for rest-breaking
Format: in vivo
Settings: South Africa
From the text: It is to be understood that not all compounds may work on all deciduous fruit species in all orchards.

## choline borate
  Usability on Golden Delicious apples: could not be used
